In brackets after ≈: the same amount, converted by molar mass. Where two headings read alike, the source gives them in different places.
What was measured:
Assay type in all cases: cell-based, human
[1] = system: p-c-Jun and p-SAPK/JNK in KG-1a cells; assay: p-c-Jun and p-SAPK/JNK in KG-1a cells by Western blotting; settings: IC50 concentration, 6 h
Protocol: (§1) KG-1a cells (1.5 × 10^5 cells/mL) were treated with compounds or extracts at different incubation times. Then, the cells were harvested and the whole proteins were extracted using a RIPA buffer (25 mM Tris-base, pH 7.6, 0.1% SDS, 1% Triton X-100, 150 mM NaCl, and 1 mM EDTA). The protein concentration was measured using the Folin-Lowry or Bradford assay. The whole protein lysates (30 µg/lane) were then separated through 7.5% SDS-PAGE under reducing conditions and then transferred to PVDF membranes. The membranes were blocked in 5% skim milk in PBS, pH 7.4 at RT for 2 h, then, target proteins were probed with specific primary antibodies (anti-WT1, anti-CD34, anti-GAPDH, anti-cleaved caspase-3, anti-cleaved PARP, anti-phospho-Akt, anti-phospho-c-Jun, anti-phospho-SAPK/JNK, and anti-YAP/TAZ) indicated in Table S10 which diluted at a ratio of 1:1,000 in PBS, pH 7.4 at RT for 2 h. After incubation, the membranes were rinsed 6 times with 0.1% Tween-20 (Sigma-Aldrich, MA, USA) in PBS, pH 7.4 (PBS-T), each time for 5 min. […] Finally, the protein band signal was quantified by using a scan densitometer (Bio-Rad Laboratories, CA, USA). […]

[2] = system: KG-1a cells; assay: Trypan blue exclusion test, cell numbers of KG-1a cells; settings: IC20 concentrations, 48 h
Protocol: (§2) This test was used to confirm the cytotoxicity of the test samples. The cancer cells after exposure to crude ethanolic extracts and active compounds for 48 h were harvested and washed with ice-cold PBS, pH 7.4 for 3 times. Then, the cells were resuspended with PBS, pH 7.4. The cell suspensions were diluted with PBS, pH 7.4 at the appropriate dilution before being mixed with 0.2% trypan blue solution at 1:2 dilution for cell count on a hemocytometer. From this test, the viable cells and the dead cells could also be obviously detected.
as §2, with “crude ethanolic extracts and active compounds. KG-1a” for “the test samples. The cancer”

[3] = system: p-Akt (S473) in KG-1a cells; assay: p-Akt (S473) in KG-1a cells by Western blotting; settings: IC50 concentration, 6 h
Protocol: as §1

[4] = system: KG-1a cells; assay: Cell death analysis by PI staining and flow cytometry in KG-1a cells; settings: nocodazole 5–120 ng/mL, shogaol 6–9 µg/mL, curcumin various concentrations; time course
Protocol: Additionally, PI staining was used to investigate the cytotoxicity of the active compounds. KG-1a cells after exposure to the active compounds with various concentration were harvested at different incubation times and washed with ice-cold PBS, pH 7.4 for 2 times. Then, the cells were resuspended with PI in PBS, pH 7.4 at a ratio of 1:10,000. The percentage of dead cells was detected by flow cytometry (CytoFLEX S, Beckman Coulter, CA, USA) and analyzed by CytExpert program (Beckman Coulter, CA, USA).

[5] = system: WT1 protein expression in KG-1a cells; assay: WT1 protein expression in KG-1a cells by Western blotting
Protocol: (§3) KG-1a cells (1.5 × 10^5 cells/mL) were treated with compounds or extracts at different incubation times. Then, the cells were harvested and the whole proteins were extracted using a RIPA buffer (25 mM Tris-base, pH 7.6, 0.1% SDS, 1% Triton X-100, 150 mM NaCl, and 1 mM EDTA). The protein concentration was measured using the Folin-Lowry or Bradford assay. The whole protein lysates (30 µg/lane) were then separated through 7.5% SDS-PAGE under reducing conditions and then transferred to PVDF membranes. The membranes were blocked in 5% skim milk in PBS, pH 7.4 at RT for 2 h, then, target proteins were probed with specific primary antibodies (anti-WT1, anti-CD34, anti-GAPDH, anti-cleaved caspase-3, anti-cleaved PARP, anti-phospho-Akt, anti-phospho-c-Jun, anti-phospho-SAPK/JNK, and anti-YAP/TAZ) indicated in Table S10 which diluted at a ratio of 1:1,000 in PBS, pH 7.4 at RT for 2 h. After incubation, the membranes were rinsed 6 times with 0.1% Tween-20 (Sigma-Aldrich, MA, USA) in PBS, pH 7.4 (PBS-T), each time for 5 min. The reaction was followed by HRP-conjugated secondary antibody at 1:20,000 dilution in PBS, pH 7.4 at RT for 2 h, then, the membranes were rinsed 6 times for 5 min each with PBS-T. The proteins were shown using Immobilon Forte Western HRP substrate (Millipore, MA, USA). Finally, the protein band signal was quantified by using a scan densitometer (Bio-Rad Laboratories, CA, USA).

[6] = system: KG-1a cells; assay: MTT cytotoxicity assay in KG-1a cells; settings: for IC50 / IC20: Homo sapiens, KG-1a; for IC20: read-out: IC20 KG-1a (inhibitory concentration at 20% growth); for Selectivity index (SI): IC50 for normal cells (PBMCs) / IC50 for cancer cells (KG-1a)
Protocol: MTT (3-(4,5-dimethylthiazol-2-yl)-2,5-diphenyltetrazolium bromide) assay was used to investigate the cytotoxicity of the test samples. KG-1a (1.5 × 10^4 cells/well), K562 (1.0 × 10^4 cells/well), PBMCs (1.0 × 10^5 cells/well), A549 (5.0 × 10^3 cells/well), MCF-7 (5.0 × 10^3 cells/well), and HeLa (5.0 × 10^3 cells/well) were seeded into a 96-well plate and incubated overnight at 37 °C with 5% CO2. […] After that, 5 mg/mL of MTT dye solution (Sigma-Aldrich, MA, USA) was added and incubated for 4 h. The produced formazan crystals were dissolved in 200 µL of DMSO (Sigma-Aldrich, MA, USA); then, the optical density (OD) was measured using an ELISA plate reader (Metertech, Taipei, Taiwan) at 578 nm with a reference wavelength of 630 nm. The percentage of surviving cells was calculated from the absorbance values of the test and control wells using the following Equation. 1 [drawing 1]
where ODsample is a mean absorbance in test well and ODvehicle control is a mean absorbance in VC well. The average percentage of surviving cells at each concentration obtained from triplicate experiments was plotted as a dose-response curve. Inhibitory concentration values at 50% growth (IC50 value) were defined as the lowest concentration of the test sample that inhibited cell growth by 50% compared to the untreated control.
To calculate IC50 values, a dose-response curve was fitted using non-linear regression analysis, as described in the GraphPad Prism guidelines (https://www.graphpad.com/support/faq/how-to-determine-an-icsub50sub/). The IC50 value was obtained by determining the point at which the curve intersected 50% growth inhibition. Non-linear regression graphs of the dose-response curve for each compound are provided in the supplementary data file (Figs. S1–S8).
where IC50 N is IC50 for normal cells and IC50 C is IC50 for cancer cells which were treated with the same compounds in both cells.

[7] = system: cleaved caspase-3 and PARP in KG-1a cells; assay: Cleaved caspase-3 and cleaved PARP in KG-1a cells by Western blotting; settings: IC50 concentrations (curcumin 10 µg/mL, shogaol 3 µg/mL, nocodazole 10 ng/mL), 0–12 h
Protocol: as §3

[8] = system: TAZ protein expression in KG-1a cells; assay: TAZ protein expression in KG-1a cells by Western blotting; settings: IC50 concentrations, 0–12 h
Protocol: KG-1a cells (1.5 × 10^5 cells/mL) were treated with compounds or extracts at different incubation times. Then, the cells were harvested and the whole proteins were extracted using a RIPA buffer (25 mM Tris-base, pH 7.6, 0.1% SDS, 1% Triton X-100, 150 mM NaCl, and 1 mM EDTA). The protein concentration was measured using the Folin-Lowry or Bradford assay. The whole protein lysates (30 µg/lane) were then separated through 7.5% SDS-PAGE under reducing conditions and then transferred to PVDF membranes. The membranes were blocked in 5% skim milk in PBS, pH 7.4 at RT for 2 h, then, target proteins were probed with specific primary antibodies (anti-WT1, anti-CD34, anti-GAPDH, anti-cleaved caspase-3, anti-cleaved PARP, anti-phospho-Akt, anti-phospho-c-Jun, anti-phospho-SAPK/JNK, and anti-YAP/TAZ) indicated in Table S10 which diluted at a ratio of 1:1,000 in PBS, pH 7.4 at RT for 2 h. After incubation, the membranes were rinsed 6 times with 0.1% Tween-20 (Sigma-Aldrich, MA, USA) in PBS, pH 7.4 (PBS-T), each time for 5 min. […] Finally, the protein band signal was quantified by using a scan densitometer (Bio-Rad Laboratories, CA, USA).

[9] = IC20 concentrations, 48 h, normalized to GAPDH
[10] = 48 h, active compounds and drugs, MTT, 48 h, read-out: IC50 KG-1a
[11] = Table S7, KG-1a, first replicate, read-out: IC50 value R1
[12] = Table S7, KG-1a, third replicate, read-out: IC50 value R3
[13] = active compounds and drugs, MTT, 48 h

Row | Compound | p-c-Jun and p-SAPK/JNK levels compared to VC [1] | decrease of total cell number compared to VC [2] [%] | normalized viable cell counts [2] | p-Akt (S473) level compared to VC [3] | induction of cell death (PI staining) [4] | decrease of WT1 protein level compared to VC [5, 9] [%] | decrease of WT1 protein level compared to VC ([5]; IC50 concentration, 3 h) [%] | IC50 [6, 10] [µg/mL] | IC20 ([6]; 48 h, incubation for 48 h) [µg/mL] | IC50 [6, 11] [µg/mL] | IC50 ([6]; Table S7, KG-1a, mean of R1-R3, read-out: IC50 value Mean) [µg/mL] | IC50 [6, 12] [µg/mL] | Selectivity index (SI) ([6]; 48 h) | IC50 KG-1a [6, 13] [µg/mL] | time to activation of cleaved caspase-3 and PARP [7] [h] | effect on TAZ protein abundance [8] | decrease of WT1 protein level compared to VC ([5]; IC50 concentration, 6 h) [%] | IC50 ([6]; Table S7, KG-1a, second replicate, read-out: IC50 value R2) [µg/mL] | Selectivity index (SI) ([6]; 48 h, listed as curcumin) | IC20 KG-1a (inhibitory concentration at 20% growth) ([6]; incubation for 48 h) [µg/mL]
1 | CCCCC/C=C/C(=O)CCc1ccc(O)c(OC)c1 [Shogaol, shogaol] | increased | 35.32 ± 6.10 | 976.13 ± 13.69 × 10^3 cells per 1 million total cells | decreased | notably induced cell death at 6 h | 30.71 ± 3.90 | 22.58 ± 3.99 | 2.99 ± 0.01 (≈ 10.8 µM) | 0.12 (≈ 0.434 µM) | 2.98 (≈ 10.8 µM) | 2.99 (≈ 10.8 µM) | 2.99 (≈ 10.8 µM) | 3.07 | 3 (≈ 10.9 µM) | 3 | no significant change in its abundance was observed | – | – | – | –
2 | COc1cc(/C=C/C(=O)CC(=O)/C=C/c2ccc(O)c(OC)c2)ccc1O [Curcumin, curcumin] | increased | 40.75 ± 12.78 | 954.40 ± 3.19 × 10^3 cells per 1 million total cells | decreased | gradually induced cell death after 12 h of incubation | 44.05 ± 9.81 | – | 10 (≈ 27.1 µM) | 3.51 ± 0.59 (≈ 9.53 µM) | 10.4 (≈ 28.2 µM) | – | 10.6 (≈ 28.8 µM) | 1.31 | 10.52 ± 0.12 (≈ 28.6 µM) | 6 | no significant change in its abundance was observed | 77.01 ± 8.80 | 10.6 (≈ 28.7 µM) | greater than 1 | 3 (≈ 8.14 µM)
